Experimental data as given in US11000524B2, “Tyrosine kinase inhibition as a treatment for epilepsy” (Iowa State University Research Foundation, Inc., priority 2016, dated 2021).

What was measured:
[1] = tested on: hippocampal in vitro model; conditions: Salter and Kalia, 2004, Sanna et al., 2000; cited from earlier work
[2] = tested on: rat kainate model of epilepsy; experiment: Saracatinib post-treatment in the rat kainate model of epilepsy, 4 months video-EEG study; format: in vivo, rats; conditions: four months monitoring
Procedure: Fifteen rats (n=8 for control and 7 for SAR) were studied over the course of four months. Treatments and methods used in Example 12 were followed for this Example except for the extended time and the SAR/vehicle was administered 2 h after stopping the seizures (SE) with diazepam. The SAR was given at 25 mg/kg, oral twice daily for three days followed by daily for next four days. The drug was NOT administered after 7-day time point.

[3] = LC-MS of saracatinib in hippocampal tissue (blood brain barrier crossing); format: in vivo, C57BL/6J mice
Procedure: For the LC-MS the optimum dose of saracatinib for our experiment was based on the published literature (Green et al., 2009; Hannon et al., 2010; Liu et al., 2012; Yang et al., 2010). […] The mice hippocampal tissues were homogenized in ˜0.2 mL 1:1 methanol:water using bullet blender. An additional 125 μL HPLC grade water was added to the homogenized samples. This was followed by three similar successive extractions with 375 μL 3:1 acetonitrile:water. The homogenate was sonicated for 10 min in a sonication water bath. The sample was pelleted by centrifugation at 13,000 g for 7 min and the supernatant was collected after each extraction and the samples were pooled. […]
The LC-MS analysis for saracatinib was conducted using an Agilent Technologies 1290 Infinity Binary Pump UHPLC system coupled to an Agilent Technologies 6540 UHD Accurate-Mass Q-TOF mass spectrometer in high resolution mode ([…]) and scanning m/z 100-1700. […] Saracatinib detection is represented by extracted ion chromatogram (EIC) using a 10 ppm extraction window and was analyzed (FIG. 1E) using Agilent Mass Hunter Qualitative Analysis B.07.00 software. The X-axis on the EIC represents retention time and the Y-axis represents the abundance of ions detected. Saracatinib concentrations were observed as the area of the EIC peaks and was calculated based on the linear curve of the observed peak areas of standards. […]

[4] = tested on: rat kainate model of TLE; experiment: Saracatinib post-treatment in the rat kainate model of TLE, 28 days continuous video-EEG; format: in vivo, Sprague Dawley rats; conditions: for rats that did not develop epilepsy (of seven treated): 25 mg/kg oral from 2 h post-diazepam, twice daily 3 days then daily 4 days
Procedure: Rats were used in the following example. The rats were treated as per the materials and methods of Examples 2-10 except for the following. Fourteen rats were used and implanted with telemetry device 10 days prior to the induction of SE, with RLD of kainate, as described previously (Puttachary et al., 2016b). The telemetry device used was CTA-F40 PhysioTel™ telemetry device (Data Science International, Minneapolis, USA) for video-EEG recording.
Disabling the Fyn kinase function, either by pretreatment with saracatinib or fyn KO, prior to SE induction impacts the initial severity of SE and thus compromises the epileptogenic events. Therefore, we tested the effect of Fyn kinase inhibition with the saracatinib on epileptogenesis after the induction of SE in the rat kainate model of TLE. To mimic human TLE from translational view point, the rat kainate model is more suitable in terms of progressive nature of the disease since the frequency of spontaneous CS consistently increases over time in rats in contrast to the mouse kainate model (Puttachary et al., 2015b and 2016b). Therefore, we tested the saracatinib in the rat kainate model after terminating the behavioral SE with diazepam. The saracatinib (25 mg/kg, oral) was administered at 2 h post-diazepam and repeated twice daily for first three days followed by a single dose daily for the next four days during the first week of post-SE period. The treatment regimen was chosen based on increase in Fyn and PKCδ levels during the first week of post-SE in the mouse model.

[5] = tested on: kainate-induced SE in C57BL/6J mice; experiment: Saracatinib pretreatment 4 h before kainate-induced status epilepticus (behavioral seizure scoring, modified Racine scale); format: in vivo; conditions: for mortality during SE / latency to the onset of first CS: saracatinib 25 mg/kg oral 4 h prior to SHD kainate 25 mg/kg i.p.; for mortality during SE: about 20% in vehicle group
Procedure: We tested Fyn knockout mice (fyn^−/−), bred on C57BL/6J hybrid background mouse (fyn^+/+), and in wildtype C57BL/6J mice treated with the fyn kinase inhibitor, Saracatinib ([…], 25 mg/kg, oral, single dose) 4 h prior to the induction of SE with KA (5 mg/kg, i.p. at 30 min intervals or as a single high dose of 25 mg/kg). Two hours after the established SE, the behavioral SE was terminated with diazepam (10 mg/kg, i.p.). The animals were euthanized with pentobarbitone (100 mg/kg, i.p.) at 4 h, 24 h and 7d (for IHC & WB) and 4 weeks (video-EEG group) post-SE. The brain, serum, and cerebrospinal fluid (CSF) were collected for various analyses. […] We examined the time-dependent activation of fyn in microglial cells and initiation of neuro-inflammatory and neurodegenerative mechanisms in the hippocampus at 4 h, 24 h and 7 day time points post-SE. We also performed electroencephalographic (EEG) analysis to determine the spike rate and SRS frequency.
Thirty C57BL/6J mice were used for the saracatinib experiment. In this experiment, 15 mice were treated with saracatinib (25 mg/kg, oral gavage as a single dose) at 4 h prior to a single high dose (SHD) of kainate (25 mg/kg, i. p), while the remaining 15 mice were given the vehicle [0.5% hydroxypropyl methylcellulose in 0.1% tween 80] 4 h prior to kainate.
All animals administered with kainate were subjected to video recording. The seizures were staged and the SE was scored by direct observation of animals during the 2 h SE and exact duration of each stage of seizure was calculated. The video recordings were used for secondary analysis and for independent verification of seizures by two different personnel who were not involved in direct scoring during the experiments. The personnel who did the behavioral analysis were blind to the experimental groups. The behavioral seizures were scored based on modified Racine scale from stage 1 to 5 as described previously (Beamer et al., 2012; Puttachary et al., 2015b; Racine, 1972; Tse et al., 2014). Briefly, the staging was as follows: stage 1, absence-like immobility; stage-2, hunching with facial or manual automatisms evident from brisk movement of vibrissae and repeated grooming of the face; stage 3, rearing with forelimb clonus and facial or manual automatisms; stage 4, repeated rearing with continuous forelimb clonus and falling; and stage-5, generalized tonic clonic convulsions with lateral recumbence or jumping and/or wild running followed by generalized convulsions. Stage 1 and stage 2 were categorized as non-convulsive seizures (NCS) and stage ≥3 as convulsive seizures (CS) (Beamer et al., 2012; Puttachary et al., 2015b; Tse et al., 2014). The latency to the onset of CS and the duration of seizures were analyzed for each animal within a group as described previously (Puttachary et al., 2015b; Tse et al., 2014). The duration of CS is the total time spent by an animal in stage ≥3 during the 2 h of established SE until the diazepam was administered. Since a very few animals reached stage 5 in the saracatinib pretreated group and in the fyn^−/− mice, we considered stage ≥3 as the starting point for 2 h established SE. The data were analyzed and the severity of seizures, duration of CS, latency to CS onset, and mortality rate were compared between the groups.
In all kainate-treated animals, the behavior seizures were terminated with diazepam (10 mg/kg, i.p.) at 2 h after the first onset of convulsive seizure. The 2 h duration between the onset of convulsive seizure and the diazepam treatment was considered as 2 h established SE. During this period, all wildtype control mice had continuous convulsive seizures for >30 min. All kainate-treated animals received 1 mL of Ringer's lactate solution (s.c.) twice a day for three days to enable them to recover from dehydration and the lost bodyweight due to SE.

[6] = saracatinib 25 mg/kg oral single dose 4 h prior to kainate, vs vehicle, 2 h established SE

For `CC(C)(C)n1nc(-c2ccc(Cl)cc2)c2c(N)ncnc21` [PP2], the “frequency of epileptiform discharges” value [1] is given as “reduces frequency of epileptiform discharges”.
For `CN1CCN(CCOc2cc(OC3CCOCC3)c3c(Nc4c(Cl)ccc5c4OCO5)ncnc3c2)CC1` [saracatinib, N-(5-chloro-1,3-benzodioxol-4-yl)-7-[2-(4-methylpiperazin-1-yl)ethoxy]-5-(oxan-4-yloxy)quinazolin-4-amine], the “rats in which development of epilepsy was completely prevented (of seven)” value ([2]; 25 mg/kg oral twice daily 3 days then daily 4 days) was “four out of seven”, the animals not responding [2] was “one animal did not respond” and the “seizures in the other animals” value [2] was “significantly reduced seizures”. For the same compound, the “crossing of the blood brain barrier (BBB)” value ([3]; LC-MS of hippocampus after 25 mg/kg oral) was “crossed the BBB”, the “persistence in hippocampus, 8 h compared to 28 h” value ([3]; LC-MS, FIG. 1F) was “persisted in the hippocampus at higher levels at 8 h post-SE when compared to 28 h post-administration” and the “rats that did not develop epilepsy (of seven treated)” value ([4]; 28 d post-SE) was “four out of seven”. The “rats that did not develop epilepsy (of seven treated)” value ([4]; 28 d post-SE, listed as SAR) was “four”, the “epileptiform spike counts / spiking frequency vs vehicle” value ([4]; 28 d post-SE, video-EEG) was “significantly reduced” and the “number of spontaneous CS vs vehicle” value ([4]; 28 d post-SE, video-EEG) was “significantly reduced”. The “number of spontaneous CS vs vehicle” value ([4]; 28 d post-SE, video-EEG, listed as SAR) was “significant reduction”, the “initial SE severity vs vehicle group” value ([4]; before treatment (post-SE dosing)) was “no significant difference” and the “rats not responding to treatment” value ([4]; of seven treated rats) was “one rat did not respond”. The “number of spontaneous CS in a month (two rats)” value ([4]; two of seven treated rats, >24 episodes in vehicle group) was less than 10, the “mice that reached stage 5 seizure” value ([5]; SHD kainate 25 mg/kg, 67% in vehicle group) was 7% and the “mortality during SE” value [5] was “no mortality”. The “mortality during SE” value ([5]; listed as SAR) was “reducing seizure severity and morality rate”, the “latency to the onset of first CS” value ([5]; vs vehicle) was “increased latency” and the “latency to the onset of first CS” value ([5]; vs vehicle, listed as SAR) was “increasing the latency of seizure onset”. For the same compound, the “duration of convulsive seizures (CS)” value [5, 6] was “significant reduction”, the seizure severity [5, 6] was “significant reduction” and the seizure severity ([5]; saracatinib 25 mg/kg oral single dose 4 h prior to kainate, vs vehicle, 2 h established SE, listed as SAR) was “reducing seizure severity”.
